Assays:
two-spotted mites = two-spotted mites on bean plants, spray, mortality after two days; assay type: in vivo; conditions: Tetranychus urticae, 48 h, read-out: % Mortality (2 days); for mortality at 0.00025 %: spray concentration .00025%; for mortality at 0.0005 %: spray concentration .0005%; for mortality at 0.001 %: spray concentration .001%
Procedure: Mortality was evaluated two days after spraying.
Mortality after two days is set forth below.

Pythium = Pythium infested soil test, cotton; assay type: in vivo; conditions: 1.5 kg/ha, 8 days
Source text: Pythium infested soil was placed in a 900 cc cup. Compounds of this invention were mixed at a rate of 1.5 kg/ha in a section 2" wide×2" deep×4" long to simulate an in-the-row application. Five cotton seeds were planted in the treated soil. After 8 days, the cotton plants were removed and rated for disease control.

[1] = tested on: organo-phosphorous resistant two-spotted spider mites; assay: organo-phosphorous resistant two-spotted spider mites on bean plants, spray, mortality after two days; conditions: Tetranychus urticae, 48 h, read-out: % Mortality (2 days)
Phytophthora infestans [2] = assay: whole plant or invertebrate; assay type: in vivo; conditions: in Solanum lycopersicum, 96 h, read-out: % control tomato late blight in a residual wash-off test
[3] = tested on: bean aphids (Aphis fabae); assay: bean aphids on nasturtium leaves, spray; assay type: in vivo; conditions: 24 hours, read-out: 24 Hours Evaluation (% Kill)
Procedure: Stems of nasturtium leaves infested with bean aphids (Aphis fabae) were placed in individual vials of water. The leaves were sprayed to run-off with a series of suspensions of N-[N-[2-chloro-5-(trifluoromethyl)phenyl]-N-[2,4-dinitro-6-(trifluoromethyl)-phenyl]aminothio]-N,4-dimethylbenzenesulfonamide. Suspensions were prepared by dissolving 50 mg of the compound in 10 ml of acetone, adding 1 ml of 1% methocel 15, and diluting to volume with Duponol®:water at 1:3000. Evaluations with respect to % kill 24 hours later are set forth below.

mosquito larvae = mosquito larvae test (failure to become adults); assay type: in vivo; conditions: 27°-30°, continuous light
Procedure: Twenty-five newly hatched mosquito larvae were placed in 25 ml of distilled water in 4 oz glass jars, and 10 mg diet, consisting of 2 parts liver powder and 1 part brewer's yeast, was added.

[4] = tested on: adult cotton boll weevils (Anthonomus grandis); assay: adult cotton boll weevils spray test; assay type: in vivo; conditions: 1% acetone solution, 24 hours
Procedure: Five adult cotton boll weevils (Anthonomus grandis) were confined in a 4-oz. wide mouth jar. These were sprayed with a 1% acetone solution of the indicated compounds. Percent mortality after 24 hours is set forth below.

Venturia inaequalis = assay: apple scab preventive test; assay type: in vivo; conditions: 10-12 days
Procedure: Compounds of this invention are dissolved in acetone in an amount equal to 6% of the final volume and then suspended at a concentration of 20 ppm in purified water containing 25 ppm of the surfactant Alkanol® XC (sodium alkyl naphthalene sulfonate). This suspension is sprayed to the point of run-off on apple seedlings. The following day, the plants are inoculated with a spore suspension of the fungus Venturia inaequalis and incubated in a growth room for 10-12 days. Disease ratings are then made. […] Phytotoxicity in the form of foliar burn was observed on some of the plants in association with disease control.

Rhizopus = assay: Rhizopus-corn meal mixture overspray test; conditions: 168 h, 100 ppm, 20° C., 7 days, read-out: % control Rhizopus
Procedure: Compounds of this invention were dissolved in acetone in an amount equal to 6% of final volume and then suspended at a concentration of 100 ppm in purified water containing 500 ppm of the surfactant Alkanol® XC (sodium alkyl naphthalene sulfonate). This solution was oversprayed on a Rhizopus-corn meal mixture in 6 cm aluminum cups. The sprayed plates were placed in a closed plastic bag, stored at 20° C. for 7 days, and then rated.
The untreated cups were completely covered with Rhizopus mycelial growth, but the treated cups were mostly free of growth by this disease-causing organism.

adult houseflies = adult houseflies spray test; assay type: in vivo, housefly; conditions: Musca domestica; 1% acetone solutions, 24 hours
Source text: Twenty adult houseflies were confined in each of several cylindrical stainless steel cages (7.5 cm D×4 cm high) with wire screens of the ends. These were sprayed with 1% acetone solutions of the indicated compounds.

Phytophthora infestans [5] = assay type: in vivo; conditions: 20 ppm, 4 days
[6] = tested on: brown dog ticks (Rhipicephalus sanguineus); assay: brown dog ticks spray test; assay type: in vivo; conditions: 48 h, 12.5 ppm in acetone, forty eight hours
Procedure: Four-ounce wide mouth jars, each containing 10 brown dog ticks (Rhipicephalus sanguineus), were sprayed with 12.5 ppm concentration of the indicated compounds in acetone solution. The ticks were confined with caps which were also sprayed. Forty eight hours later, percent mortality was determined.

[7] = tested on: red-legged grasshoppers (Melanoplus femurrubrum); assay: red-legged grasshoppers spray test; assay type: in vivo; conditions: 10 ppm in acetone, 48 hours
Procedure: Five red-legged grasshoppers (Melanoplus femurrubrum) were confined in each of several cylindrical stainless steel cages (7.5 cm D×4 cm high) with wire screens at the end. These were sprayed with 10 ppm concentration of the indicated compounds in acetone solution. Percent mortality after 48 hours is recorded below.

SMILES | mortality at 0.00025 % (two-spotted mites) [%] | mortality at 0.0005 % (two-spotted mites) [%] | mortality at 0.001 % (two-spotted mites) [%] | % control Pythium (Pythium) [%] | mortality at 0.0005 % [1] [%] | mortality at 0.001 % [1] [%] | mortality at 0.002 % [1] [%] | pest or weed control at 20 ppm (Phytophthora infestans [2]) [%] | mortality at 0.005 % ([3]; spray concentration 0.005%) [%] | mortality at 0.1 % ([3]; spray concentration 0.1%) [%] | EC50 (concentration at which 50% of the initial larvae fail to become adults) (mosquito larvae) [ppm] | mortality at 1 % [4] [%] | pest or weed control at 20 ppm (Venturia inaequalis) [%] | inhibition of growth at 100 ppm (Rhizopus) [%] | mortality at 1 % (adult houseflies) [%] | % control tomato late blight in a preventive test (Phytophthora infestans [5]) [%] | mortality at 12.5 ppm [6] [%] | mortality at 10 ppm [7] [%]
Cc1ccc(S(=O)(=O)N(C)SN(c2cc(C(F)(F)F)ccc2Cl)c2c([N+](=O)[O-])cc([N+](=O)[O-])cc2C(F)(F)F)cc1 | 100 | 100 | 100 | 0 | 93 | 97 | 100 | 100 | 100 | 100 | 0.00081 | – | – | – | – | – | – | –
CCCCN(SN(c1cc(C(F)(F)F)ccc1Cl)c1c([N+](=O)[O-])cc([N+](=O)[O-])cc1C(F)(F)F)S(=O)(=O)c1ccccc1C | 100 | 100 | 100 | – | 90 | 89 | 100 | – | – | – | – | 100 | 100 | 90 | 100 | – | – | –
CCCCN(SN(c1cc(C(F)(F)F)ccc1Cl)c1c([N+](=O)[O-])cc([N+](=O)[O-])cc1C(F)(F)F)S(=O)(=O)c1ccc(C)cc1 | – | – | – | 0 | – | – | – | 100 | – | – | – | 100 | 75 | – | 100 | 100 | 100 | 100

— US4309425A (priority 1980, dated 1982)
